Laboratory results from paper PMC4710522, “A Novel Triazolopyridine-Based Spleen Tyrosine Kinase Inhibitor That Arrests Joint Inflammation” (PLoS ONE, 2016).

What was measured:
[1] = target: T1, JAK2 (Homo sapiens, UniProt O60674); test: JAK2 HTRF assay; type: biochemical
T1 construct: purchased Millipore 14-511
Experimental: CC-509 was prepared at a concentration of 1.5 mM in DMSO followed by 3-fold dilutions in Greiner […] polypropylene plates. A 1:4 dilution of compounds by 8 μL/well transfer from the polypropylene plates to 24 μL/well Assay Buffer (50 mM HEPES pH 7.6, 1 mM DTT, 10 mM MgCl2, 0.01% Triton X100, 0.01% BSA and 0.1 mM EDTA) in Costar 3573 384 well black plates was then performed. Kinase (13 μL/well of 4.6 ng/mL JAK2, Millipore 14–511) or Assay Buffer only (background controls) were added to Costar 3573 384-well black plates and compound (2 μL/well) was added from the 1:4 dilution plate. […] Time resolved fluorescence was read in assay plates on a PerkinElmer EnVision. […]
(§1) For the TEL-Syk assay, the intensity values for the 700 and 800 channel were exported as text files in ActivityBase (IDBS, Guildford, UK) to derive the ratios that reflect kinase activity. […] For the JAK2 HEL and Ramos NFAT β-lactamase assays, the fluorescence values obtained at 460 nm and 530 nm were exported into ActivityBase to calculate response ratios. […] Evans blue dye extravasation was expressed as mean ± SEM and % inhibition for the test article groups was normalized to the cromolyn positive control. […] The mean data from each group was plotted and either the AUC(day 11–18) or % inhibition on day 18 was calculated. Data is expressed as mean ± SEM of each group with n = 6–12. […]

[2] = target: T2, Tel-Syk fusion protein in HEK293 cells (Homo sapiens, UniProt P41212+P43405); test: Tel-Syk biomarker assay (in-cell western, Syk Y525/526 phosphorylation); type: cell-based
T2 construct: human Syk (NM_003177.5) kinase domain corresponding to amino acids 341–612; myristoylation motif (N); expressed in transfected cells
T2 sequence (P41212+P43405 fused): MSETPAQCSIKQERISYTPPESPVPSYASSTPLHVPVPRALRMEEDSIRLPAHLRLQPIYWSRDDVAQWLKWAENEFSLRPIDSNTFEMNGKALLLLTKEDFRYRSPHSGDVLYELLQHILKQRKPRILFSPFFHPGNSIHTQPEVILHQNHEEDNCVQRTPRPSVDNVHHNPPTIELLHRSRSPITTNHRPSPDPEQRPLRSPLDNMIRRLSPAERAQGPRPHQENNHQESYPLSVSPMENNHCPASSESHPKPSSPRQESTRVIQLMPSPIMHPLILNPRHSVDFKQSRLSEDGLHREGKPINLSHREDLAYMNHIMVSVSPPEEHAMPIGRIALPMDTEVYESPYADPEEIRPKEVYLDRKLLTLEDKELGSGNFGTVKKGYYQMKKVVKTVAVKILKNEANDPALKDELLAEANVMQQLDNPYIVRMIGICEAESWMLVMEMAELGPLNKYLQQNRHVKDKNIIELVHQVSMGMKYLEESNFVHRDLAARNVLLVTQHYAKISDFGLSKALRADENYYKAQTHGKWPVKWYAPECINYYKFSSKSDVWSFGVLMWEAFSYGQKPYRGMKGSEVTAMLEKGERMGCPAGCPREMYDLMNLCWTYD
Experimental: HEK293 T-REx™ (Life Technologies, Grand Island, NY) stably transfected with human TEL-Syk (cloned as described prior section DNA constructs) were plated on black poly-D-lysine coated 96-well plates (BD Biosciences, San Diego, CA) in culture media containing tetracycline-free fetal bovine serum (Clontech, MountainView, CA) for 16 hours in a tissue culture incubator. Tel-Syk expression was induced for 6 hours in fresh growth media containing 1 μg/ml tetracycline (Sigma Chemicals, St. Louis, MO). […] Plates were blocked with Odyssey Blocking Buffer for 90 minutes at room temperature and incubated overnight at 4°C on a rotating platform with rabbit phospho-Syk (1:1000) and mouse V5 (1:2500) primary antibodies diluted in Odyssey Blocking Buffer. The plates were washed 5 times with 1X PBS + 0.1% Tween-20, incubated for 1 hour at room temperature with anti-rabbit IR680 (1:1000) and anti-mouse IR800CW (1:1000) secondary antibodies diluted in Odyssey Blocking Buffer, and washed 5 additional times with 1X PBS + 0.1% Tween-20 at room temperature. The plates were scanned on the Li-Cor Odyssey instrument (Li-Cor Biosciences, Lincoln, NE) in the 700 and 800 channels.

[3] = target: Syk (Homo sapiens, UniProt P43405); test: Syk HTRF assay; type: biochemical; parameters: purchased Carna Biosciences 08-176; details: in-house, mean ± SD, n = 8
Experimental: CC-509 was prepared at a concentration of 1.5 mM in dimethyl sulfoxide (DMSO) followed by 3-fold dilutions in Greiner 384 well polypropylene plates. […] Time resolved fluorescence was read in assay plates on a PerkinElmer EnVision. […] The IC50 value was determined as described in the data fitting section below.
as §1

[4] = target: T3, DNAPK_h (Homo sapiens, UniProt P78527); test: SelectScreen kinase assay; type: biochemical; details: 3 µM, KM ATP
T3 construct: purchased Life Technologies (Invitrogen) SelectScreen, Z'-LYTE / Adapta
Experimental: Syk kinase mode of inhibition studies, including parameters described in Fig 1, were conducted on the LC3000 platform by Caliper Life Sciences (Hopkinton, MA) according to standard protocols developed by the supplier. […] Non-kinase enzyme assays and GPCR, ion channel, and transporter binding assays were run by CEREP (France). Non-GLP manual patch clamp hERG assays were run by ChanTest (Cleveland, Ohio). Vivid® Assay kits (Life Technologies) were used to measure the cytochrome P450 inhibition of the compound against CYP3A, CYP2C9, CYP2C19, CYP2D6, and CYP1A2, as described.
Kinase activity was measured using either the Z’-Lyte® or the Adapta® protocols as part of the SelectScreen™ profiling service offered at Life Technologies (Grand Island, NY). […] Values expressed as percent control (% control) relative to DMSO-only wells (uninhibited, 100%).

[5] = male rats; cited from earlier work

T1 sequence (O60674 whole entry): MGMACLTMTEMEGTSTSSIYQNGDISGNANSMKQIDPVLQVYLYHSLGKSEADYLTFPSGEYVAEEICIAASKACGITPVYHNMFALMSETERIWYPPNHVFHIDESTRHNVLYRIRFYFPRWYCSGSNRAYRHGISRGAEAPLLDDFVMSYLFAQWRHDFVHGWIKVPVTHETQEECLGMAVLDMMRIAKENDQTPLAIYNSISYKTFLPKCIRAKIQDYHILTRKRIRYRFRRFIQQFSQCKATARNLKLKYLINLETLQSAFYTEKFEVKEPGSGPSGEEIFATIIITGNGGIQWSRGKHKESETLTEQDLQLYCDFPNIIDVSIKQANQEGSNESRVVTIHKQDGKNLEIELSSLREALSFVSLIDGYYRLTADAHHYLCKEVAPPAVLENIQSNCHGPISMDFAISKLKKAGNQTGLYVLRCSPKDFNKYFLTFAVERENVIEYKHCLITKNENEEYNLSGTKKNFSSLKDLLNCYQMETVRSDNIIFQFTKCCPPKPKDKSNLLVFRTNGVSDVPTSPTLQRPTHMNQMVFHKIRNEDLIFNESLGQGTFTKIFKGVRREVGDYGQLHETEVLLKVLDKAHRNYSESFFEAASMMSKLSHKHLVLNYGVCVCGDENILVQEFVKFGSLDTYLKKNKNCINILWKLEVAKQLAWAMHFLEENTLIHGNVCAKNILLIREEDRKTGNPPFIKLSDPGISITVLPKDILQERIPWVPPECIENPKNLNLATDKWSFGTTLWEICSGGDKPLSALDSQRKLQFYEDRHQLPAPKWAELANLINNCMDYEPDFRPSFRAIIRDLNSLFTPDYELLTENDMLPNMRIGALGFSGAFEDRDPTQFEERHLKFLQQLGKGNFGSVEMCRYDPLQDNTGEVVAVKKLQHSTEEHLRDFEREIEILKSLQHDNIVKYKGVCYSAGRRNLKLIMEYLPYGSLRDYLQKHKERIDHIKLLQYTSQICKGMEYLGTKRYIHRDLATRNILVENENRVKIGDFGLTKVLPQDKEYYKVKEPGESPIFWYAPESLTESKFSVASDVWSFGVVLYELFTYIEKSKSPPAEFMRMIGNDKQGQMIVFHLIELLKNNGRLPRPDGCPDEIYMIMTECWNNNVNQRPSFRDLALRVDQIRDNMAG

Row | SMILES | fold less potent than R406, Jak2 enzyme ([1]; data not shown) [fold] | IC50 ([1]; in-house, mean ± SD) [nM] | IC50 [2] [nM] | IC50 [3] [nM] | % control [4] [%] | exposure producing myelosuppression [5] [µM·h]
1 | c1cc(CC2CCOCC2)n2nc(Nc3ccc4c(NC5CCOCC5)n[nH]c4c3)nc2c1 [CC-509, [3-(2H-3,4,5,6-tetrahydropyran-4-ylamino)(1H-indazol-6-yl)][5-(2H-3,4,5,6-tetrahydropyran-4-ylmethyl)(2H-1,2,4-triazolo[1,5-a]pyridin-2-yl)]amine] | 22 | 19 ± 2 | 610 ± 190 | 26 ± 6 | – | –
2 | COc1cc(Nc2ncc(F)c(Nc3ccc4c(n3)NC(=O)C(C)(C)O4)n2)cc(OC)c1OC [R406, reference compound] | – | – | – | – | 87 | 120
